Source: PubChem BioAssay (NCI)
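1) Cells in 96-well plates. 2) Compound, 48 h, 5 concentrations. 3) Linear interpolation between surrounding doses. 4) Unreached endpoint = highest concentration. GI50: concentration for 50% inhibition of growth. TGI: total growth inhibition.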

Assays:
Assay in all cases: growth of human tumour cells (NCI), 48 h
CAKI-1 renal = test system: CAKI-1 renal
MALME-3M melanoma = test system: MALME-3M melanoma
NCI-H522 lung = test system: NCI-H522 lung
RPMI-8226 leukemia = test system: RPMI-8226 leukemia
RXF 393 renal = test system: RXF 393 renal
SF-268 CNS = test system: SF-268 CNS
SF-539 CNS = test system: SF-539 CNS
SK-OV-3 ovarian = test system: SK-OV-3 ovarian
MCF7 breast = test system: MCF7 breast
MDA-MB-435 = test system: MDA-MB-435

O=C1OC(CCCl)(c2ccccc2)CC1CN1CCOCC1 (stereo unspecified)
TGI (CAKI-1 renal): 24.6 µM | TGI (MALME-3M melanoma): 33.5 µM | TGI (NCI-H522 lung): 33.5 µM | TGI (RPMI-8226 leukemia): 27.9 µM | TGI (RXF 393 renal): 30.9 µM | TGI (SF-268 CNS): > 100 µM | TGI (SF-539 CNS): 70.1 µM | TGI (SK-OV-3 ovarian): > 100 µM

COc1ccc(OC)c(NC(=O)CCC/C(CC(=O)c2ccc(O)c(OC)c2)=N\NC(=O)C[N+](C)(C)C)c1
TGI (CAKI-1 renal): > 100 µM | TGI (MALME-3M melanoma): > 100 µM | TGI (NCI-H522 lung): > 100 µM | TGI (RPMI-8226 leukemia): > 100 µM | TGI (SF-268 CNS): > 100 µM | TGI (SF-539 CNS): > 100 µM | TGI (SK-OV-3 ovarian): > 100 µM

Cc1cc(N(CCC#N)CCC#N)ccc1/C=C/C(=O)Nc1cccc(Cl)c1
TGI (CAKI-1 renal): > 100 µM | TGI (MALME-3M melanoma): > 100 µM | TGI (NCI-H522 lung): > 100 µM | TGI (RPMI-8226 leukemia): > 100 µM | TGI (SF-268 CNS): > 100 µM | TGI (SF-539 CNS): > 100 µM | TGI (SK-OV-3 ovarian): > 100 µM

CCOC(=O)C(C)(c1cn(C)c2ccccc12)c1cn(C)c2ccccc12
TGI (CAKI-1 renal): > 100 µM | TGI (MALME-3M melanoma): > 100 µM | TGI (RPMI-8226 leukemia): > 100 µM | TGI (RXF 393 renal): > 100 µM | TGI (SF-539 CNS): > 100 µM | TGI (SK-OV-3 ovarian): > 100 µM

Cn1c2c(cc(S(=O)(=O)c3ccccc3)c1=O)CCc1c-2cnn1-c1ccc(Cl)cc1
GI50 (CAKI-1 renal): 4.36 µM | TGI (CAKI-1 renal): > 100 µM | GI50 (MCF7 breast): 4.59 µM | TGI (MCF7 breast): > 100 µM | GI50 (NCI-H522 lung): 1.78 µM | TGI (NCI-H522 lung): 4.12 µM | GI50 (RXF 393 renal): 1.9 µM | TGI (RXF 393 renal): 3.71 µM | GI50 (SF-268 CNS): 2.24 µM | TGI (SF-268 CNS): 5.12 µM | GI50 (SF-539 CNS): 1.87 µM | TGI (SF-539 CNS): 3.4 µM | GI50 (SK-OV-3 ovarian): 2.34 µM | TGI (SK-OV-3 ovarian): 5.24 µM

COc1ccc2cc(-c3ccoc(=O)c3-c3cc(OC)c(OC)c(OC)c3)ccc2c1
GI50 (CAKI-1 renal): 0.0986 µM | TGI (CAKI-1 renal): > 100 µM | GI50 (MALME-3M melanoma): > 100 µM | TGI (MALME-3M melanoma): > 100 µM | GI50 (MCF7 breast): 0.0322 µM | TGI (MCF7 breast): > 57.5 µM | GI50 (NCI-H522 lung): 0.0206 µM | TGI (NCI-H522 lung): 0.113 µM | GI50 (RPMI-8226 leukemia): 0.218 µM | TGI (RPMI-8226 leukemia): 13.4 µM | GI50 (RXF 393 renal): 0.028 µM | TGI (RXF 393 renal): > 100 µM | GI50 (SF-268 CNS): 0.626 µM | TGI (SF-268 CNS): > 100 µM | GI50 (SF-539 CNS): 0.266 µM | TGI (SF-539 CNS): > 100 µM | GI50 (SK-OV-3 ovarian): 0.389 µM | TGI (SK-OV-3 ovarian): > 100 µM

N#Cc1c(N/N=C/c2c(Cl)cccc2Cl)nc(N)nc1N1CCOCC1
GI50 (CAKI-1 renal): 12.1 µM | TGI (CAKI-1 renal): > 100 µM | GI50 (MCF7 breast): 3.18 µM | TGI (MCF7 breast): > 100 µM | GI50 (MDA-MB-435): 3.26 µM | TGI (MDA-MB-435): 36 µM | GI50 (NCI-H522 lung): 4.35 µM | TGI (NCI-H522 lung): 27.3 µM | GI50 (RPMI-8226 leukemia): 3.86 µM | TGI (RPMI-8226 leukemia): 26.2 µM | GI50 (RXF 393 renal): 16.6 µM | TGI (RXF 393 renal): 94.2 µM | GI50 (SF-268 CNS): 16.5 µM | TGI (SF-268 CNS): > 100 µM | GI50 (SF-539 CNS): 7.24 µM | TGI (SF-539 CNS): 30.4 µM | GI50 (SK-OV-3 ovarian): 20.2 µM | TGI (SK-OV-3 ovarian): > 100 µM

Clc1cc(Cl)c(OCC#CI)cc1Cl
GI50 (CAKI-1 renal): 1.09 µM | TGI (CAKI-1 renal): 2.69 µM | GI50 (MCF7 breast): 1.69 µM | TGI (MCF7 breast): 3.58 µM | GI50 (MDA-MB-435): 2.02 µM | TGI (MDA-MB-435): 5.44 µM | GI50 (NCI-H522 lung): 1.53 µM | TGI (NCI-H522 lung): 3.7 µM | GI50 (RPMI-8226 leukemia): 2.27 µM | TGI (RPMI-8226 leukemia): 8.38 µM | GI50 (RXF 393 renal): 2.37 µM | TGI (RXF 393 renal): 6.28 µM | GI50 (SF-268 CNS): 11 µM | TGI (SF-268 CNS): 23.4 µM | GI50 (SF-539 CNS): 2.94 µM | TGI (SF-539 CNS): 12.8 µM

CS(=O)(=O)Oc1cccc(/C=N/N=C(\N)NO)c1
TGI (CAKI-1 renal): > 100 µM | TGI (MALME-3M melanoma): > 100 µM | TGI (NCI-H522 lung): > 100 µM | TGI (RXF 393 renal): > 100 µM | TGI (SF-268 CNS): > 100 µM | TGI (SF-539 CNS): > 100 µM | TGI (SK-OV-3 ovarian): 70.8 µM
